Measured values: ChEMBL document CHEMBL3507680, “University of Dundee, Gates Library screen for HepG2 cell viability”

Experiment: Human HepG2 cell viability assay in 384 well format
Type: toxicity, cell-based
Set-up: dose 125 nL, time 70.5 hour; cytotoxicity at 70.5 h: concentration not given beside the values
Conditions: HepG2 cells, read-out: Inhibition

SMILES | cytotoxicity at 70.5 h
CNC(=O)NC(=O)CCSCc1cc(Cl)cc2cccnc12 | -16.5%
OCc1c(Cl)ncn1-c1ccc(F)cc1 | 2.53%
CSc1ccccc1C(=O)N(C)Cc1nncn1C(C)C | -0.541%
CCOC(=O)NC(CNC(=O)c1ncccn1)CC(C)C (stereo not drawn) | -7.23%
CC(C)c1cncnc1N1CC[C@H](N2CCOCC2)[C@H](CCCO)C1 | -9.63%
Cc1ccc(C(=O)N2C[C@H]3CCC[C@@]3(COc3ccccn3)C2)nc1 | 11.3%
O=C(NCCCNCC1CNc2ccnn2C1)c1ccccc1 (stereo not drawn) | -12%
Cc1cccc(-c2noc(CN3CCCC3Cn3cncn3)n2)c1 (stereo not drawn) | -1.92%
Cc1ccc(OCC(=O)NCC(F)(F)F)nc1 | -4.18%
CC1CS(=O)(=O)CCN1CCCc1ccc(Cl)cc1 (stereo not drawn) | -6.15%
COc1cccc([C@@H]2CCN(Cc3cccc(C)n3)C[C@H]2O)c1 | -9.27%
O=C(NCC1(Sc2ccccc2)CC1)c1cc[nH]n1 | -1.79%
COCCCC1(C(=O)O)CCCN(C(=O)c2ccc(C(C)C)[nH]c2=O)C1 (stereo not drawn) | -5.84%
O=C(c1cc(C2CC2)[nH]n1)N1CCN(Cc2ccncc2)CC1 | -11.9%
CS(=O)(=O)CCCN1CCSCC1c1ccc(Cl)cc1 (stereo not drawn) | -9.37%
CCN1CCCN(c2ccc(-n3ccc(C)n3)nn2)CC1 | 10.6%
Cc1ccc2c(c1)C(NC(=O)N(C)C)CC21CCN(C)CC1 (stereo not drawn) | -3.53%
COc1cc(N2CCCC(CO)(Cc3ccccc3F)C2)ncn1 (stereo not drawn) | 50.5%
Cc1ccc(C(=O)N2CCC(Oc3ccccc3)CC2)c(=O)[nH]1 | 10.3%
CCN1CCN(c2ccc(C(=O)NC(C)CCOC)cc2)CC1 (stereo not drawn) | 23.2%
CCOc1ncccc1CNC(=O)N1CCC(n2cncn2)CC1 | -0.329%
COCCN1CCCC(O)(CN2CCCN(c3ncccn3)CC2)C1=O (stereo not drawn) | 2.84%
Cn1cccc1C(=O)N1C[C@H]2CC[C@@H]1CN(Cc1cscn1)C2 | 1.29%

SMILES | cytotoxicity at 70.5 h
CCn1c(CN(C)Cc2cnc(C)s2)nc2c(F)cccc21 | -24.5%
CS(=O)(=O)N[C@@H]1CCN(Cc2nccs2)[C@H]1Cc1ccncc1 | -13.1%
CNS(=O)(=O)CC(=O)NC(C)Cc1ccccc1Br (stereo not drawn) | 3.97%
CCCn1ncc(-c2ccnc(N[C@@H]3C[C@@H]4CC[C@H]3C4)n2)c1C | -2.1%
CCn1nc(C)cc1C(=O)N1CCOc2ccc(OC)cc21 | -4.62%
O=S(=O)(c1ccccc1Br)N1CCC2(CC1)OCCS2 | -2.19%
COCCN1CCC2(C1)CN(c1ncccn1)C2 | -0.0538%
CN(Cc1nccn1C)CC1CCOc2ccccc2C1 (stereo not drawn) | 22.3%
Cc1cccc(C)c1-c1cc(NCCO)nc2[nH]ccc12 | -11.1%
CCc1ncnc2c1CCN(c1ncc(F)cn1)CC2 | -7.64%
CC(=O)NC[C@]1(O)CCN(C(=O)c2ccc(F)c(Cl)c2)C[C@H]1O | -6.22%
CN(CC(=O)N(C)C1CCCCC1)Cc1nc2c(cnn2C)c(=O)[nH]1 | 8.15%
CCN(CC)c1ncc(Cl)c(C(=O)NC2CCc3nccn3C2)n1 (stereo not drawn) | -13.5%
CCN1CC2(CCN(CC3COCCO3)CC2)OC1=O (stereo not drawn) | 44.4%
CN(C)c1ncc(-c2ccc(C(N)=O)cc2)c(C2CNCCO2)n1 (stereo not drawn) | -4.35%
CCOc1ncnc2c1CCN(C(=O)c1cnccn1)CC2 | 1.88%
CSc1ccc(CCN2CCN([C@H]3CCCC[C@@H]3O)CC2)cc1 | -8.75%
CC1CCC(NS(=O)(=O)CC(=O)Nc2ccccc2N2CCCC2)CC1 (stereo not drawn) | -1.66%
O=C(C1CCS(=O)(=O)C1)N1CCN(c2cnccn2)CC1 (stereo not drawn) | 13%
CS(=O)(=O)NCCNC(=O)C1(c2ccc(F)cc2)CC1 | -0.0991%
O=C(C1CCOC1)N1CCC2(CCNCC2)C1 (stereo not drawn) | 27.5%
CN1CCc2cc(C(CNS(=O)(=O)c3cccs3)N3CCCC3)ccc21 (stereo not drawn) | 30.7%
CCn1ncc2c1C(COC)N(C(=O)c1cscn1)CC2 (stereo not drawn) | 6.98%

SMILES | cytotoxicity at 70.5 h
c1cnc(N2C[C@@H]3CC[C@H](C2)N(Cc2ccsc2)C3)nc1 | -9.26%
O=C(O)c1cc(-c2cccs2)nc2c(Cl)cnn12 | -5.65%
COCCNC(=O)C[C@@H]1COC[C@H]2CN(C(=O)C3CCOCC3)C[C@@H]12 | 1.49%
CC(=O)N1C[C@@H](c2ccsc2)[C@@H]2CN(Cc3ccccc3)CC[C@@H]21 | -10.8%
CN(c1ccncn1)C1CC2(CCN(C(=O)Cc3cccs3)C2)C1 (stereo not drawn) | -6.91%
CN(CC1CCOCC1)C(C(=O)O)c1cccc(F)c1F (stereo not drawn) | 0.34%
Cc1nc(C)c(CC(=O)N2C[C@H]3CC[C@@H]2CN(C(=O)N(C)C)C3)c(=O)[nH]1 | 15.9%
Cc1noc(C)c1C(=O)N1Cc2ncn(C)c2C(COCC2CC2)C1 (stereo not drawn) | -7.58%
CCc1nc(C2CCCN(C(=O)c3ccc4c(c3)nnn4C)C2)no1 (stereo not drawn) | -7.83%
Cc1nc(C)n(CC2CCCCN2CCS(C)(=O)=O)n1 (stereo not drawn) | 12.7%
CC(C)(C)OC(=O)Cn1cccc(S(=O)(=O)N2CCCCCC2)c1=O | -12.4%
COCCCNC1CCCN(c2ccc(C)nn2)C1 (stereo not drawn) | -9.97%
Cc1cc(C)c2ncn(CCOCCO)c(=O)c2c1 | -5.3%
Cc1nn(C)c(C)c1C1CCCN1C(=O)c1ccc(Cl)o1 (stereo not drawn) | 3.22%
C[S+]([O-])c1nncn1CCCc1ccc(Cl)cc1 (stereo not drawn) | -2.94%
O=C(CCN1CCOCC1)NC1CCCN(CC2CCCCC2)C1 (stereo not drawn) | -3.9%
CS(=O)(=O)c1cn[nH]c1C1CCCCN1C(=O)c1cnccn1 (stereo not drawn) | -5.18%
Cn1cc(N2CC3(CCN(Cc4cccnc4)CC3)OCC2=O)cn1 | -3.89%
CC(O)C(=O)N1CCN(c2ccccc2Cl)C(=O)C1 (stereo not drawn) | 17%
O=c1[nH]c2nc(NCC3CCCO3)ncc2c(=O)n1-c1cccc(F)c1 (stereo not drawn) | 4.03%
N#Cc1ccc(CN2CCC(CN3CCOCC3)C2)cc1 (stereo not drawn) | -5.35%
Cc1ccccc1C(=O)N1C[C@@H]2C[C@@H](C)O[C@@H]2C1 | -8.1%
O[C@@H]1CCN(CC2CC2)[C@H]1Cc1ccccc1 | -23%

SMILES | cytotoxicity at 70.5 h
COc1cccc(-c2ncc3c(n2)N(C)CCN(CCN(C)C)C3=O)c1 | -6.84%
CCOC(=O)C1CCN(C(=O)CN2CCCC2Cc2ccccc2)CC1 (stereo not drawn) | -17.2%
CCN(CC)C(=O)c1nc2c(s1)CCN(Cc1cccc(OC)c1)CC2 | -11.2%
Cc1cc(C)n(CC2CN(CC3CCCC3)CCO2)n1 (stereo not drawn) | -3.55%
Cn1cc(C[C@H]2[C@H](N3CCOCC3)CCN2C(=O)c2ccco2)cn1 | 5.32%
Cc1nccn1CCCC(=O)N1CCC(Nc2cccnn2)CC1 | 5.36%
CC(=O)N1CCC2(CC1)CN(CC(C)C)CC21CCNC1=O (stereo not drawn) | 13.6%
Cc1occc1C(=O)N1CCO[C@H]2[C@H](OCc3cccnc3)CC[C@@H]21 | -8.78%
Cc1ccc(-c2nc(C(=O)N(C)C3CCN(C)CC3)cs2)c(C)c1 | -1.64%
CC(=O)c1ccccc1NC(=O)CCN1CCSCC1 | 6.67%
Cc1n[nH]c(C)c1CCc1n[nH]c(=O)n1Cc1cccs1 | -0.375%
Cc1nc(C2CCCN2C(=O)CCc2ccccc2)ncc1C(N)=O (stereo not drawn) | -11.8%
CC(C)Nc1nc2c(cc1C(=O)NCC1CC1)CCN(C)CC2 | -8.36%
Cc1nn(C)c(Cl)c1S(=O)(=O)N(CC(N)=O)CC(C)C | -16.6%
Cc1cc(C(=O)N2CC[C@@H]3CN(C)S(=O)(=O)[C@@H]3CC2)no1 | -7.25%
Nc1cc(-c2cc[nH]n2)nc(N2CCCC2)n1 | 5.5%
Cc1ccc(C(N)=O)c(N2Cc3cnc(C(C)(C)C)nc3C2)n1 | -11.7%
CC(OCC1CC1)C(=O)NCCC(=O)Nc1ccccn1 (stereo not drawn) | -7.55%
O=C1CN(C(=O)CN(CC2CCC2)CC(F)(F)F)CCN1 | -9.35%
CCCn1ccnc1CNC(=O)C1COc2cc(OC)ccc2C1 (stereo not drawn) | -5.58%
Cc1cccc(NC2CCN(C(=O)Nc3cc(F)cc(F)c3)CC2)n1 | 42.8%
CCn1nc2c(cc1=O)CN(Cc1ccc(-n3cccn3)cc1)CC2 | 2.14%
COc1ccccc1CNC(=O)C(C)N1CC(n2cc(C)cn2)C1 (stereo not drawn) | -10.8%

SMILES | cytotoxicity at 70.5 h
Cc1nn(C)c(C)c1-c1ccnc(N2CCCN(CC(C)C)CC2)n1 | 4.01%
CC(=O)N1CCCC1c1cncc(Oc2ccc(F)cc2)n1 (stereo not drawn) | -3.89%
O=C(C1CC(=O)N(C2CC2)C1)N1CCC(Oc2ccccc2Cl)CC1 (stereo not drawn) | 0.0694%
Nc1ncnc2[nH]c(N3CCCCC3)nc12 | -6.41%
Cn1cc(N2C(=O)CC[C@@H]3[C@H]2CCN3Cc2nccs2)cn1 | -11.9%
O=C1NCCN(CC2CCCCC2)C1CC(=O)N1CCc2n[nH]cc2C1 (stereo not drawn) | -1.96%
CC(=O)NC1CCN(C(=O)Nc2cccc(SC(F)F)c2)CC1 | -0.185%
CNC(=O)N1CCC2(CC1)CN(C(C)C)Cc1cc(F)ccc12 | -2.71%
Cc1nc(CN(C)C2CCN(Cc3ccc4ccccc4n3)C2)no1 (stereo not drawn) | 20.5%
COc1ccc(F)c(CN2CCCC3(CCN(S(C)(=O)=O)C3)C2)c1 (stereo not drawn) | -10.2%
O=C(CCn1ccc(=O)[nH]c1=O)N1CCC(OCc2cccnc2)CC1 | 27.2%
CS(=O)(=O)N1CCC(Oc2ccc(C(=O)NCCC(N)=O)cc2Cl)CC1 | 6.15%
c1cncc(COCC2CC[C@H]3[C@H]2OCCN3Cc2ccoc2)c1 (stereo partly drawn) | 11.3%
Cc1cc(C)c2nc(CN3CCC(CN)CC3)cc(O)c2c1 | 2.77%
Cc1ncc(-c2ccnc(NCCO)n2)c(C2CCCCC2)n1 | 21.9%
O=C1C(N2CCOCC2)CCCN1Cc1cccc(C(F)(F)F)c1 (stereo not drawn) | -17.4%
O=C(NC1CC1)C1CNCCN1C(=O)CCOc1ccccc1 (stereo not drawn) | -0.757%
Cc1cc(NC(=O)N2CCC[C@@H]2CO)nn1-c1ccccc1Cl | -7.9%
COC(=O)CNC(=O)c1scnc1C | -1.16%
Cc1sc2nc(CCN)nc(N(C)CCCC3CCCO3)c2c1C (stereo not drawn) | 16.5%
CCCC(=O)NCC(=O)NC1CC(C)(C)Cc2oc(C)cc21 (stereo not drawn) | -5.41%
